For data set [1], the target named is T1, Oatp1 (Solute carrier organic anion transporter family member 1A1) (Rattus norvegicus, UniProt P46720).
T1 sequence (P46720 whole entry): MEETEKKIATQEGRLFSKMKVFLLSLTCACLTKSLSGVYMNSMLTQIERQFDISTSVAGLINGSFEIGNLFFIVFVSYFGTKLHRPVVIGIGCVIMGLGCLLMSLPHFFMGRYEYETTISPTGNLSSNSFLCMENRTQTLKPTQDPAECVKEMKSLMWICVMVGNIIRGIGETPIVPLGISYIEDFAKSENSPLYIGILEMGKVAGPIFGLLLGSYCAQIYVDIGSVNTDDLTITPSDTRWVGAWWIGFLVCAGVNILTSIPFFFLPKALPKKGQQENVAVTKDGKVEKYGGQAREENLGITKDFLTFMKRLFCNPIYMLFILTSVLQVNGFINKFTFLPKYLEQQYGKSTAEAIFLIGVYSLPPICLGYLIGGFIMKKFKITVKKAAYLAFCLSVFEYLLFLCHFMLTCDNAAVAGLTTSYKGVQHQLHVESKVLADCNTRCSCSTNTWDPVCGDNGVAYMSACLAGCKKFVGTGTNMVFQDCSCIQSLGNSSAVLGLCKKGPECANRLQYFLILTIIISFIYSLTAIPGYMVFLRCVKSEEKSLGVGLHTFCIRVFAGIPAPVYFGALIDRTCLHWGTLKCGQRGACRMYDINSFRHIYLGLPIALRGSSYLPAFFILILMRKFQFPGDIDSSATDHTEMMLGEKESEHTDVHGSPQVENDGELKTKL
In words: in vitro. The conditions noted are these: pig, Oatp1-expressing LLC-PK1 cells, probe E217betaG.

Data set [2] concerns the target T2, Oatp2 (Solute carrier organic anion transporter family member 1A4) (Rattus norvegicus, UniProt O35913).
T2 sequence (O35913 whole entry): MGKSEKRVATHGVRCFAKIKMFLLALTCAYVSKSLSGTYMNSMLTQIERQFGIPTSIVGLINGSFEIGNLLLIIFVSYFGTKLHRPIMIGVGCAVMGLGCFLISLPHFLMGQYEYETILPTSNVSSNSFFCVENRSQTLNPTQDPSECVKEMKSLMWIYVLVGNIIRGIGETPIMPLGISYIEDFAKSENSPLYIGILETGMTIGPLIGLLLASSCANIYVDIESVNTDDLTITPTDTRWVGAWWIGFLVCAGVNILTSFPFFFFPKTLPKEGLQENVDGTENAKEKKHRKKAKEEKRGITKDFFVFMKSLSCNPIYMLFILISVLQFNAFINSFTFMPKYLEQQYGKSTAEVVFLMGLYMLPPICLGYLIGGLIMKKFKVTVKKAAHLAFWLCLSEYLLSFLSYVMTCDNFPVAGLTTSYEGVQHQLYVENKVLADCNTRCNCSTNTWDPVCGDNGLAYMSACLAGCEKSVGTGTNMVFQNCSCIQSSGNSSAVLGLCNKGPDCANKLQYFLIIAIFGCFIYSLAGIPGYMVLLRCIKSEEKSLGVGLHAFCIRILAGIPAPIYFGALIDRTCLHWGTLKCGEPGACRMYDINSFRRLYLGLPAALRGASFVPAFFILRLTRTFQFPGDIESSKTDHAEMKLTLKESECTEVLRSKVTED
Nature of the data set: in vitro. The conditions noted are these: pig, Oatp2-expressing LLC-PK1 cells, probe Digoxin.

For data set [3], the target named is T3, Solute carrier organic anion transporter family member 1A4 (Rattus norvegicus, UniProt O35913).
T3 sequence (O35913 whole entry): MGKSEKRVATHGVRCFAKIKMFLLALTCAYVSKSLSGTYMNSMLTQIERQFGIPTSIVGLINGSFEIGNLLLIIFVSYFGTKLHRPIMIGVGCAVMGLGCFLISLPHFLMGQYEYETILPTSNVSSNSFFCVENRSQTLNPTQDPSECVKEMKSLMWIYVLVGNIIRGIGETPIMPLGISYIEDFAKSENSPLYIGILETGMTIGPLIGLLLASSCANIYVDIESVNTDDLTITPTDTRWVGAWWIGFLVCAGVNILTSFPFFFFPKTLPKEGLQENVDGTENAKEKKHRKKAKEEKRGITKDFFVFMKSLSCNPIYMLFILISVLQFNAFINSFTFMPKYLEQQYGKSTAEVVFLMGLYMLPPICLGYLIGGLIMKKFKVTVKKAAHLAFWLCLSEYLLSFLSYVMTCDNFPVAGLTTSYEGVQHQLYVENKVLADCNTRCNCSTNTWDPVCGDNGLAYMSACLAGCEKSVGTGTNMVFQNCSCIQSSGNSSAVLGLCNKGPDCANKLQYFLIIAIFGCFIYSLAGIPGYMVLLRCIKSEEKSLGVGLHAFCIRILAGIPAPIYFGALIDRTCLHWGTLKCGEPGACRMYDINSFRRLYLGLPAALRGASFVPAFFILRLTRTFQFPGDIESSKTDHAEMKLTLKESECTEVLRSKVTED
In words: TP_TRANSPORTER: inhibition of Digoxin uptake in Oatp2-expressing LLC-PK1 cells. Format: functional, cell-based.

Data set [4] deals with T4, Solute carrier organic anion transporter family member 1A1 (Rattus norvegicus, UniProt P46720).
T4 sequence (P46720 whole entry): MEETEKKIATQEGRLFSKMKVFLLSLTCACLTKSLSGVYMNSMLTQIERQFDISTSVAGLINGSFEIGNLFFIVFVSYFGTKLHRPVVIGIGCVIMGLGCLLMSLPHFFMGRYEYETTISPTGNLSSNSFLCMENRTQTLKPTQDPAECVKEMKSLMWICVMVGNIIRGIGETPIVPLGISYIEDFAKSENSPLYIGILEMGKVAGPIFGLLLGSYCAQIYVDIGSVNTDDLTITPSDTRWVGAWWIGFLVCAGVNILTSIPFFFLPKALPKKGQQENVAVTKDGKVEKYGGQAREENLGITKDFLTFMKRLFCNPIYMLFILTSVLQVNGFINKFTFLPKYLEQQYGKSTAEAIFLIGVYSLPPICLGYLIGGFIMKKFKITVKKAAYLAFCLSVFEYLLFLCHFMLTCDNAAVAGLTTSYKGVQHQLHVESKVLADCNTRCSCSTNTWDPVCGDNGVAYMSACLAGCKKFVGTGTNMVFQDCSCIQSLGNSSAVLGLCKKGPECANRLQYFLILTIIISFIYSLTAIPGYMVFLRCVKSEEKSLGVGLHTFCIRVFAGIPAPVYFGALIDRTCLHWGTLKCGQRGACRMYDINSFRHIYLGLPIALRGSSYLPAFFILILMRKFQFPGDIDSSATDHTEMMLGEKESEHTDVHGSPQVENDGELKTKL
Nature of the data set: TP_TRANSPORTER: inhibition of E217betaG uptake in Oatp1-expressing LLC-PK1 cells. The format is functional, cell-based.

Data set [5] concerns the target T2, Oatp2 (Solute carrier organic anion transporter family member 1A4). Nature of the data set: TP_TRANSPORTER: inhibition of Digoxin uptake (Digoxin: 0.05 uM, Tolbutamide: 1000 uM) in Oatp2-expressing LLC-PK1 cells. The format is functional, cell-based. Details: scale not given: the % may be the effect or the level left. The conditions noted are these: pig, probe Digoxin, read-out: Activity.

The target in data set [6] is T1, Oatp1 (Solute carrier organic anion transporter family member 1A1). In words: TP_TRANSPORTER: inhibition of E217betaG uptake (E217betaG: 0.1 uM, Tolbutamide: 1000 uM) in Oatp1-expressing LLC-PK1 cells. Format: functional, cell-based. Set-up: scale not given: the % may be the effect or the level left. The conditions noted are these: pig, probe E217betaG, read-out: Activity.

Substrate in data set [7]: C[C@H]1O[C@@H](O[C@H]2[C@@H](O)C[C@H](O[C@H]3[C@@H](O)C[C@H](O[C@H]4CC[C@@]5(C)[C@H](CC[C@@H]6[C@@H]5C[C@@H](O)[C@]5(C)[C@@H](C7=CC(=O)OC7)CC[C@]65O)C4)O[C@@H]3C)O[C@@H]2C)C[C@H](O)[C@@H]1O
In words: TP_TRANSPORTER: uptake in Oatp2-expressing LLC-PK1 cells. The format is functional, cell-based.

Substrate in data set [8]: C[C@]12CC[C@@H]3c4ccc(O)cc4CC[C@H]3[C@@H]1CC[C@@H]2O[C@@H]1O[C@H](C(=O)O)[C@@H](O)[C@H](O)[C@H]1O
Nature of the data set: TP_TRANSPORTER: uptake in Oatp1-expressing LLC-PK1 cells. The format is functional, cell-based.

By Ki is commonly meant the equilibrium dissociation constant of an inhibitor or competing ligand from its target. A word on the Km: it is the concentration of substrate that gives half-maximal velocity.

As to `COc1ccc2cc([C@H](C)C(=O)O)ccc2c1` [NAPROXEN], the results for the activity at 1000 µM in data set [1] and in data set [2] were 19.9% and 52.2%, respectively. In data set [3], `C=C[C@H]1C[N@@]2CC[C@H]1C[C@@H]2[C@@H](O)c1ccnc2ccc(OC)cc12` [QUINIDINE] returned a Ki of 120 µM. `C=C[C@H]1C[N@@]2CC[C@H]1C[C@H]2[C@H](O)c1ccnc2ccc(OC)cc12` [QUININE]: the Ki in data set [3] stood at 3.81 µM. On to `CO[C@H]1/C=C/O[C@@]2(C)Oc3c(C)c(O)c4c(O)c(c(/C=N/N5CCN(C)CC5)c(O)c4c3C2=O)NC(=O)/C(C)=C\C=C\[C@H](C)[C@H](O)[C@@H](C)[C@@H](O)[C@@H](C)[C@H](OC(C)=O)[C@@H]1C` [RIFAMPIN], for which the Ki in data set [4] stood at 18.2 µM; in data set [3] it was 1.46 µM. With `CCCCNC(=O)NS(=O)(=O)c1ccc(C)cc1` [TOLBUTAMIDE], the activity at 1000 µM in data set [5] came out at 47.3%; in data set [6], 32.9%.

B1: Solute carrier organic anion transporter family member 1A4 (Rattus norvegicus) (protein)
chain: MGKSEKRVATHGVRCFAKIKMFLLALTCAYVSKSLSGTYMNSMLTQIERQFGIPTSIVGLINGSFEIGNLLLIIFVSYFGTKLHRPIMIGVGCAVMGLGCFLISLPHFLMGQYEYETILPTSNVSSNSFFCVENRSQTLNPTQDPSECVKEMKSLMWIYVLVGNIIRGIGETPIMPLGISYIEDFAKSENSPLYIGILETGMTIGPLIGLLLASSCANIYVDIESVNTDDLTITPTDTRWVGAWWIGFLVCAGVNILTSFPFFFFPKTLPKEGLQENVDGTENAKEKKHRKKAKEEKRGITKDFFVFMKSLSCNPIYMLFILISVLQFNAFINSFTFMPKYLEQQYGKSTAEVVFLMGLYMLPPICLGYLIGGLIMKKFKVTVKKAAHLAFWLCLSEYLLSFLSYVMTCDNFPVAGLTTSYEGVQHQLYVENKVLADCNTRCNCSTNTWDPVCGDNGLAYMSACLAGCEKSVGTGTNMVFQNCSCIQSSGNSSAVLGLCNKGPDCANKLQYFLIIAIFGCFIYSLAGIPGYMVLLRCIKSEEKSLGVGLHAFCIRILAGIPAPIYFGALIDRTCLHWGTLKCGEPGACRMYDINSFRRLYLGLPAALRGASFVPAFFILRLTRTFQFPGDIESSKTDHAEMKLTLKESECTEVLRSKVTED
As to B1, in data set [7], the Michaelis-Menten constant (Km) came to 0.279 µM.

B2: Solute carrier organic anion transporter family member 1A1 (Rattus norvegicus) (protein)
chain: MEETEKKIATQEGRLFSKMKVFLLSLTCACLTKSLSGVYMNSMLTQIERQFDISTSVAGLINGSFEIGNLFFIVFVSYFGTKLHRPVVIGIGCVIMGLGCLLMSLPHFFMGRYEYETTISPTGNLSSNSFLCMENRTQTLKPTQDPAECVKEMKSLMWICVMVGNIIRGIGETPIVPLGISYIEDFAKSENSPLYIGILEMGKVAGPIFGLLLGSYCAQIYVDIGSVNTDDLTITPSDTRWVGAWWIGFLVCAGVNILTSIPFFFLPKALPKKGQQENVAVTKDGKVEKYGGQAREENLGITKDFLTFMKRLFCNPIYMLFILTSVLQVNGFINKFTFLPKYLEQQYGKSTAEAIFLIGVYSLPPICLGYLIGGFIMKKFKITVKKAAYLAFCLSVFEYLLFLCHFMLTCDNAAVAGLTTSYKGVQHQLHVESKVLADCNTRCSCSTNTWDPVCGDNGVAYMSACLAGCKKFVGTGTNMVFQDCSCIQSLGNSSAVLGLCKKGPECANRLQYFLILTIIISFIYSLTAIPGYMVFLRCVKSEEKSLGVGLHTFCIRVFAGIPAPVYFGALIDRTCLHWGTLKCGQRGACRMYDINSFRHIYLGLPIALRGSSYLPAFFILILMRKFQFPGDIDSSATDHTEMMLGEKESEHTDVHGSPQVENDGELKTKL
With B2, in data set [8], the Km is 11.2 µM.

Values taken from ChEMBL document CHEMBL2073782, “Comparative inhibitory effects of different compounds on rat oatpl (slc21a1)- and Oatp2 (Slc21a5)-mediated transport” (Pharm Res, 2002).
